Literature values in patent publication US8633194B2, “Pharmaceutical composition of piperazine derivatives” (UCB Pharma, S.A., priority 2004, dated 2014).

Target: histamine H1-receptor (Homo sapiens, UniProt P35367)
Settings: in vitro

Chain of histamine H1-receptor (P35367 whole entry, species assumed): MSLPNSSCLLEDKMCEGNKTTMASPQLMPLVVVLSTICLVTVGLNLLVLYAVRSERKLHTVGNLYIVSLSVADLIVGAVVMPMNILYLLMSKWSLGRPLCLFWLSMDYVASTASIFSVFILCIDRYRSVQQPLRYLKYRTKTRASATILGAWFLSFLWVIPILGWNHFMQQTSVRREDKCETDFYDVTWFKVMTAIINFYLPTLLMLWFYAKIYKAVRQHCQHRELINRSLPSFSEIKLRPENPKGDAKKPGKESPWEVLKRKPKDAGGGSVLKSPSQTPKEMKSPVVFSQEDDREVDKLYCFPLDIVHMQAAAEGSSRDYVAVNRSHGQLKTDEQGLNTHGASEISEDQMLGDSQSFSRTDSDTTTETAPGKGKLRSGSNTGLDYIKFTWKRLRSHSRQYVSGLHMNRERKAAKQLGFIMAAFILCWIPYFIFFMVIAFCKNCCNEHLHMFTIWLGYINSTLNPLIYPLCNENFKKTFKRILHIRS

Affinity for H1-receptors: high affinity
Selectivity for H1-receptors: selectivity
Structure (SMILES): O=C(O)COCCN1CCN(C(c2ccc(F)cc2)c2ccc(F)cc2)CC1 [Efletirizine, 2-[2-[4-[bis(4-fluorophenyl)methyl]-1-piperazinyl]ethoxy]acetic acid]
